# In patent US20240270762A1, “PENICILLIN-BINDING PROTEIN INHIBITORS” (priority 2021, published 2024):
# Where two headings read alike, the source gives them in different places.
# How the values were obtained:
# [1] = system: N. gonorrhoeae WHO M; assay: Liquid broth MIC in Fastidious broth; conditions: Neisseria gonorrhoeae
# [2] = system: N. gonorrhoeae WHO G; assay: Liquid broth MIC in Fastidious broth; conditions: Neisseria gonorrhoeae
# [3] = system: N. gonorrhoeae WHO Q; assay: Liquid broth MIC in Fastidious broth; conditions: Neisseria gonorrhoeae
# [4] = molecular target: T1, PBP3 from Acinetobacter baumannii (ATCC 19606) (Acinetobacter baumannii, UniProt A0ABX6CK25); assay: Bocillin-FL fluorescence polarization competition binding, A. baumannii PBP3; conditions: fluorescence polarization competition binding assay using Bocillin-FL; read-out: A. baumannii PBP3 Potency
# T1 sequence (A0ABX6CK25 64-610): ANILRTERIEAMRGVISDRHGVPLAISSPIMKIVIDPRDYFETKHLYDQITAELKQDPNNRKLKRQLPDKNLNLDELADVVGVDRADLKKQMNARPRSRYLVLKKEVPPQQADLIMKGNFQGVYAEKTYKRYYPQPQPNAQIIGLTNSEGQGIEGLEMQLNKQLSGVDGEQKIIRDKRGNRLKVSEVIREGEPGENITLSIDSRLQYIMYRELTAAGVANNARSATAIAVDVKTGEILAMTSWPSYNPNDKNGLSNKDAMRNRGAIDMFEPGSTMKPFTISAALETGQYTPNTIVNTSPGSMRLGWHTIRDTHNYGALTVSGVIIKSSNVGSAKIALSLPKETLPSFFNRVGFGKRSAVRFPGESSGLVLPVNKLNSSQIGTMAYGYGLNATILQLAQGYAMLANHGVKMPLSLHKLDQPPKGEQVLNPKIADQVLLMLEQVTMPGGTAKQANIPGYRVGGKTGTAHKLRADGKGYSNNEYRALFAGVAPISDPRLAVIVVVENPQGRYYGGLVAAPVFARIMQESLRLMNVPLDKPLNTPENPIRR
# Procedure, shortened: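 Purified PBP was preincubated with inhibitor (E. coli PBP3 1.5 μM, 30 min; P. aeruginosa PBP3 0.75 μM, A. baumannii PBP3 0.2 μM and PBP1a 1 μM, 15 min), then Bocillin-FL (0.1 μM; 0.05 μM for PBP1a) added and FP read up to 60 min. EC50 = 50% loss of bound probe.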
# [5] = system: N. gonorrhoeae WHO Z; assay: Liquid broth MIC in Fastidious broth; conditions: Neisseria gonorrhoeae
# [6] = system: N. gonorrhoeae WHO K; assay: Liquid broth MIC in Fastidious broth; conditions: Neisseria gonorrhoeae
# [7] = system: A. baumannii CDC-0036; assay: microbe, parasite or virus in culture; type: cell-based; conditions: Acinetobacter baumannii, CDC0036, read-out: MIC, A. baumannii CDC-0036
# [8] = system: N. gonorrhoeae WHO X; assay: Liquid broth MIC in Fastidious broth; conditions: Neisseria gonorrhoeae
# Description: Liquid broth-based assays were used for antibacterial testing of PBP inhibitors in Neisseria gonorrhoeae. Briefly, cryo-preserved bacterial cultures of clinical strains were streaked for isolation on Chocolate Agar (72 g/L (2×) GC Agar Base (BD #228950) and 2% (2×) Hemoglobin was autoclaved at 121° C. for 20 minutes to sterilize. Once cooled to ˜50° C. the 2×GC Agar Base and 2× Hemoglobin solutions are combined and 1% IsoVitaleX Enrichment (BD #211876) was added to the solution). Strains were incubated at 36° C. and 5% CO2 to allow growth of colonies, 24 hours before inoculum preparation. 2-fold serial dilutions of test compounds were conducted in a 96 well plate with a final volume of 75 μL per well at 2-fold the final desired concentration in Fastidious broth (Remel #R07664). For preparation of assay inoculum, a direct suspension was prepared by aseptically swabbing 10-15 colonies from agar plates into culture tubes containing 2 mL of fresh sterile saline. After the dilution plates were set up, direct suspensions were then diluted in a cuvette containing sterile saline and the optical density was measured at 600 nm. Inocula were diluted such that 75 μL of this culture in Fastidious broth results in a starting bacterial concentration of 5×10^5 CFU/mL when added to the dilution plates. The plates were incubated for ˜24 hours at 36° C. and 5% CO2.
# [9] = system: P. aeruginosa CDC-0095; assay: microbe, parasite or virus in culture; type: cell-based; conditions: Pseudomonas aeruginosa, CDC0095, read-out: Minimum inhibitory concentration, P. aeruginosa CDC-0095
# [10] = system: A. baumannii 1258916; assay: microbe, parasite or virus in culture; type: cell-based, Acinetobacter baumannii; conditions: Acinetobacter baumannii, 1258916, read-out: MIC, A. baumannii 1258916
# [11] = system: N. gonorrhoeae FA1090; assay: Liquid broth MIC in Fastidious broth; conditions: Neisseria gonorrhoeae
# Description: Additional antibacterial testing of the series was performed in 8 reference strains of N. gonorrhoeae (ATCC 49226, FA1090, MS 11, WHO G, WHO L, WHO M, WHO K, WHO X, WHO Z, WHO Q, CDC-0197). ATCC 49226, FA1090, MS11, WHO G, WHO L, and WHO M produce wild type or wild-type like PBP2. WHO K, WHO X, WHO Z, WHO Q, and CDC-0197 produce mosaic PBP2. Liquid broth-based assays were used for antibacterial testing of PBP inhibitors in Neisseria gonorrhoeae. Briefly, cryo-preserved bacterial cultures of clinical strains were streaked for isolation on Chocolate Agar (72 g/L (2×) GC Agar Base (BD #228950) and 2% (2×) Hemoglobin was autoclaved at 121° C. for 20 minutes to sterilize. Once cooled to ˜50° C. the 2×GC Agar Base and 2× Hemoglobin solutions are combined and 1% IsoVitaleX Enrichment (BD #211876) was added to the solution). Strains were incubated at 36° C. and 5% CO2 to allow growth of colonies, 24 hours before inoculum preparation. 2-fold serial dilutions of test compounds were conducted in a 96 well plate with a final volume of 75 μL per well at 2-fold the final desired concentration in Fastidious broth (Remel #R07664). For preparation of assay inoculum, a direct suspension was prepared by aseptically swabbing 10-15 colonies from agar plates into culture tubes containing 2 mL of fresh sterile saline. After the dilution plates were set up, direct suspensions were then diluted in a cuvette containing sterile saline and the optical density was measured at 600 nm. Inocula were diluted such that 75 μL of this culture in Fastidious broth results in a starting bacterial concentration of 5×10^5 CFU/mL when added to the dilution plates. The plates were incubated for ˜24 hours at 36° C. and 5% CO2.
# [12] = read-out: Minimum Inhibitory Concentration (MIC), N. gonorrhoeae WHO M
# [13] = read-out: Minimum Inhibitory Concentration (MIC), N. gonorrhoeae WHO G
# [14] = read-out: Minimum Inhibitory Concentration (MIC), N. gonorrhoeae WHO Q
# [15] = read-out: Minimum Inhibitory Concentration (MIC), N. gonorrhoeae WHO Z
# [16] = read-out: Minimum Inhibitory Concentration (MIC), N. gonorrhoeae WHO K
# [17] = read-out: Minimum Inhibitory Concentration (MIC), N. gonorrhoeae WHO X
# [18] = FA1090, read-out: Minimum Inhibitory Concentration (MIC), N. gonorrhoeae FA 1090
# [19] = read-out: Minimum Inhibitory Concentration, WHO M
# [20] = read-out: Minimum Inhibitory Concentration, WHO G
# [21] = read-out: Minimum Inhibitory Concentration, WHO Q
# [22] = read-out: Minimum Inhibitory Concentration, WHO Z
# [23] = read-out: Minimum Inhibitory Concentration, WHO K
# [24] = read-out: Minimum Inhibitory Concentration, WHO X
# [25] = FA1090, read-out: Minimum Inhibitory Concentration, FA 1090
SMILES,"MIC [1, 12]","MIC [2, 13]","MIC [3, 14]",IC50 [4],"MIC [5, 15]","MIC [6, 16]",MIC [7],"MIC [8, 17]",MIC [9],MIC [10],"MIC [11, 18]","MIC [1, 19]","MIC [2, 20]","MIC [3, 21]","MIC [5, 22]","MIC [6, 23]","MIC [8, 24]","MIC [11, 25]"
"O=C(NCCN1CCN(C(=O)NC(C(=O)N[C@H]2Cc3ccc(F)c(C(=O)O)c3OB2O)c2cc(F)c(O)c(O)c2Cl)C(=O)C1=O)c1nccs1 (stereo partly drawn) [Example 218, (3R)-3-(2-(2-chloro-5-fluoro-3,4-dihydroxyphenyl)-2-(2,3-dioxo-4-(2-(thiazole-2-carboxamido)ethyl)piperazine-1-carboxamido)acetamido)-7-fluoro-2-hydroxy-3,4-dihydro-2H-benzo[e][1,2]oxaborinine-8-carboxylic acid]",16 to 32 µg/mL,16 to 32 µg/mL,> 64 µg/mL,< 10 µM,> 64 µg/mL,> 64 µg/mL,8 to 16 µg/mL,> 64 µg/mL,8 to 16 µg/mL,2 to 4 µg/mL,1 to 2 µg/mL,–,–,–,–,–,–,–
"O=C(CN1CCN(C(=O)N[C@@H](C(=O)N[C@H]2Cc3ccc(F)c(C(=O)O)c3OB2O)c2cc(F)c(O)c(O)c2Cl)C(=O)C1=O)NCc1ccncc1 [Example 239, (R)-3-((R)-2-(2-chloro-5-fluoro-3,4-dihydroxyphenyl)-2-(2,3-dioxo-4-(2-oxo-2-((pyridin-4-ylmethyl)amino)ethyl)piperazine-1-carboxamido)acetamido)-7-fluoro-2-hydroxy-3,4-dihydro-2H-benzo[e][1,2]oxaborinine-8-carboxylic acid]",4 to 8 µg/mL,4 to 8 µg/mL,> 64 µg/mL,< 10 µM,16 to 32 µg/mL,> 64 µg/mL,2 to 4 µg/mL,> 64 µg/mL,2 to 4 µg/mL,< 1 µg/mL,1 to 2 µg/mL,–,–,–,–,–,–,–
"O=C(NCCN1CCN(C(=O)NC(C(=O)N[C@H]2Cc3ccc(F)c(C(=O)O)c3OB2O)c2cc(F)c(O)c(O)c2Cl)C(=O)C1=O)c1ccc(O)cc1 (stereo partly drawn) [Example 214, (3R)-3-(2-(2-chloro-5-fluoro-3,4-dihydroxyphenyl)-2-(4-(2-(4-hydroxybenzamido)ethyl)-2,3-dioxopiperazine-1-carboxamido)acetamido)-7-fluoro-2-hydroxy-3,4-dihydro-2H-benzo[e][1,2]oxaborinine-8-carboxylic acid]",4 to 8 µg/mL,4 to 8 µg/mL,> 64 µg/mL,< 10 µM,16 to 32 µg/mL,> 64 µg/mL,8 to 16 µg/mL,> 64 µg/mL,2 to 4 µg/mL,2 to 4 µg/mL,1 to 2 µg/mL,–,–,–,–,–,–,–
"O=C(NCCN1CCN(C(=O)NC(C(=O)N[C@H]2Cc3ccc(F)c(C(=O)O)c3OB2O)c2cc(F)c(O)c(O)c2Cl)C1=O)c1ccncc1 (stereo partly drawn) [Example 245, (3R)-3-(2-(2-chloro-5-fluoro-3,4-dihydroxyphenyl)-2-(3-(2-(isonicotinamido)ethyl)-2-oxoimidazolidine-1-carboxamido)acetamido)-7-fluoro-2-hydroxy-3,4-dihydro-2H-benzo[e][1,2]oxaborinine-8-carboxylic acid]",16 to 32 µg/mL,16 to 32 µg/mL,> 64 µg/mL,< 10 µM,> 64 µg/mL,> 64 µg/mL,2 to 4 µg/mL,> 64 µg/mL,2 to 4 µg/mL,< 1 µg/mL,4 to 8 µg/mL,–,–,–,–,–,–,–
"O=C(NCCCN1CCN(C(=O)NC(C(=O)N[C@H]2Cc3ccc(F)c(C(=O)O)c3OB2O)c2cc(F)c(O)c(O)c2Cl)C(=O)C1=O)c1nccs1 (stereo partly drawn) [Example 211, (3R)-3-(2-(2-chloro-5-fluoro-3,4-dihydroxyphenyl)-2-(2,3-dioxo-4-(3-(thiazole-2-carboxamido)propyl)piperazine-1-carboxamido)acetamido)-7-fluoro-2-hydroxy-3,4-dihydro-2H-benzo[e][1,2]oxaborinine-8-carboxylic acid]",16 to 32 µg/mL,16 to 32 µg/mL,> 64 µg/mL,< 10 µM,16 to 32 µg/mL,> 64 µg/mL,2 to 4 µg/mL,> 64 µg/mL,2 to 4 µg/mL,< 1 µg/mL,1 to 2 µg/mL,–,–,–,–,–,–,–
"O=C(CN1CCN(C(=O)N[C@@H](C(=O)N[C@H]2Cc3ccc(F)c(C(=O)O)c3OB2O)c2cc(F)c(O)c(O)c2Cl)C(=O)C1=O)NCc1nccs1 [Example 241, (R)-3-((R)-2-(2-chloro-5-fluoro-3,4-dihydroxyphenyl)-2-(2,3-dioxo-4-(2-oxo-2-((thiazol-2-ylmethyl)amino)ethyl)piperazine-1-carboxamido)acetamido)-7-fluoro-2-hydroxy-3,4-dihydro-2H-benzo[e][1,2]oxaborinine-8-carboxylic acid]",4 to 8 µg/mL,4 to 8 µg/mL,16 to 32 µg/mL,< 10 µM,16 to 32 µg/mL,16 to 32 µg/mL,2 to 4 µg/mL,> 64 µg/mL,2 to 4 µg/mL,< 1 µg/mL,1 to 2 µg/mL,–,–,–,–,–,–,–
"O=C(NCCS(=O)(=O)N1CCN(C(=O)N[C@@H](C(=O)N[C@H]2Cc3ccc(F)c(C(=O)O)c3OB2O)c2cc(F)c(O)c(O)c2Cl)C1=O)c1nccs1 [Example 264, (R)-3-((R)-2-(2-chloro-5-fluoro-3,4-dihydroxyphenyl)-2-(2-oxo-3-((2-(thiazole-2-carboxamido)ethyl)sulfonyl)imidazolidine-1-carboxamido)acetamido)-7-fluoro-2-hydroxy-3,4-dihydro-2H-benzo[e][1,2]oxaborinine-8-carboxylic acid]",–,–,–,< 10 µM,–,–,< 1 µg/mL,–,2 to 4 µg/mL,< 1 µg/mL,–,4 to 8 µg/mL,16 to 32 µg/mL,16 to 32 µg/mL,4 to 8 µg/mL,16 to 32 µg/mL,> 64 µg/mL,1 to 2 µg/mL
"O=C(NCCCN1CCN(C(=O)NC(C(=O)N[C@H]2Cc3ccc(F)c(C(=O)O)c3OB2O)c2cc(F)c(O)c(O)c2Cl)C(=O)C1=O)Nc1ccc(O)cc1 (stereo partly drawn) [Example 227, (3R)-3-(2-(2-chloro-5-fluoro-3,4-dihydroxyphenyl)-2-(4-(3-(3-(4-hydroxyphenyl)ureido)propyl)-2,3-dioxopiperazine-1-carboxamido)acetamido)-7-fluoro-2-hydroxy-3,4-dihydro-2H-benzo[e][1,2]oxaborinine-8-carboxylic acid]",4 to 8 µg/mL,4 to 8 µg/mL,> 64 µg/mL,< 10 µM,16 to 32 µg/mL,> 64 µg/mL,2 to 4 µg/mL,> 64 µg/mL,< 1 µg/mL,< 1 µg/mL,1 to 2 µg/mL,–,–,–,–,–,–,–
"O=C(NCCS(=O)(=O)N1CCN(C(=O)N[C@@H](C(=O)N[C@H]2Cc3ccc(F)c(C(=O)O)c3OB2O)c2cc(F)c(O)c(O)c2Cl)C1=O)Nc1cccnc1 [Example 267, (R)-3-((R)-2-(2-chloro-5-fluoro-3,4-dihydroxyphenyl)-2-(2-oxo-3-((2-(3-(pyridin-3-yl)ureido)ethyl)sulfonyl)imidazolidine-1-carboxamido)acetamido)-7-fluoro-2-hydroxy-3,4-dihydro-2H-benzo[e][1,2]oxaborinine-8-carboxylic acid]",–,–,–,< 10 µM,–,–,2 to 4 µg/mL,–,2 to 4 µg/mL,< 1 µg/mL,–,4 to 8 µg/mL,16 to 32 µg/mL,16 to 32 µg/mL,4 to 8 µg/mL,> 64 µg/mL,> 64 µg/mL,1 to 2 µg/mL
